Source: US5952504A, “4-amino-3-acylnaphthyridine derivatives” (Yungjin Pharmaceutical Company, Ltd., priority 1995, dated 1999)
Read-outs that look alike come from different tables or passages of the source. Each block holds one molecule with its values, some of them ahead of it.

Experiments:
H^+ /K^+ ATPase = biological target: T1, H^+ /K^+ ATPase (Oryctolagus cuniculus, UniProt P27112); experiment: Inhibition of H^+ /K^+ ATPase (rabbit gastric mucosa vesicles); type: biochemical
T1 construct: from tissue; host or cells: rabbit gastric mucosa, membrane vesicles (differential and Ficoll density gradient centrifugation)
T1 sequence (P27112 2-1035 limits assumed): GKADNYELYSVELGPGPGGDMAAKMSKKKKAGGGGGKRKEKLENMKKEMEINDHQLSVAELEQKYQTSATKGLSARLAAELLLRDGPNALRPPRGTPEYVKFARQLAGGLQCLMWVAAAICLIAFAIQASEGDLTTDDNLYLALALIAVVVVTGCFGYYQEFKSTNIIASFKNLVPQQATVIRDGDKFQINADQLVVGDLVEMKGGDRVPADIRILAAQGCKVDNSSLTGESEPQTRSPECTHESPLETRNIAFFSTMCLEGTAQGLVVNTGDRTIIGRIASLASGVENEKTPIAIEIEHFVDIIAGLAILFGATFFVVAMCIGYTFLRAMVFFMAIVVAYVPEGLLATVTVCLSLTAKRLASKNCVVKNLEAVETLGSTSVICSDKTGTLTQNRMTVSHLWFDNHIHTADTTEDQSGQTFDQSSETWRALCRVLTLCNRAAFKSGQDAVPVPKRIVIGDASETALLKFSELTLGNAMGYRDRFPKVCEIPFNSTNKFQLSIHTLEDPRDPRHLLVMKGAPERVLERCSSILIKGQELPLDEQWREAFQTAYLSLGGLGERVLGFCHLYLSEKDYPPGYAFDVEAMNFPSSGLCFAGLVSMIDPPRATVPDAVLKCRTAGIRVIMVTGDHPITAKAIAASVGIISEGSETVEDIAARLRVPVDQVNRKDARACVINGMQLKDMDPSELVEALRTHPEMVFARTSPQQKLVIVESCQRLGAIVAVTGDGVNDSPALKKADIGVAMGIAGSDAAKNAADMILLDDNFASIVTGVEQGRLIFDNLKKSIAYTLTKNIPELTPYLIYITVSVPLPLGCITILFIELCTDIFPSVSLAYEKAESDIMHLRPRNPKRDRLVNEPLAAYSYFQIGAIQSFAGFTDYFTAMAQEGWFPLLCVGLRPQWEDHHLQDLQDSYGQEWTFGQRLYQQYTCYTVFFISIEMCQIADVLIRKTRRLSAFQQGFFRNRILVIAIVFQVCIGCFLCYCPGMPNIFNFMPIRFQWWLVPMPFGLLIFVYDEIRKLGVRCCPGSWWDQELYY
T1 sequence (P18597 whole entry partner): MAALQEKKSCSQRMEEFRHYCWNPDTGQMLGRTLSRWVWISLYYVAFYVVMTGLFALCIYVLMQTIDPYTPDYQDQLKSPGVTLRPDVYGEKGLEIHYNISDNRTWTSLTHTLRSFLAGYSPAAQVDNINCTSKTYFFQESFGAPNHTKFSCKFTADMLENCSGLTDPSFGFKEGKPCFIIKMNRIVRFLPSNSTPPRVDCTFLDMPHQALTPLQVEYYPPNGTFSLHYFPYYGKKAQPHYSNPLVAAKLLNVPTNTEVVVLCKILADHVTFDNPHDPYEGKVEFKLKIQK
Procedure: 1. Inhibition of H^+ /K^+ ATPase Inhibition of H^+ /K^+ ATPase, a proton carrying enzyme, was measured by following the procedure of Saccomani et al. [Biochim. Biophy. Acta., 465, 311-330 (1977)]. Thus, a homogenate of the gastric mucose membrane of rabbit was used to prepare vesicles containing H^+ /K^+ ATPase by employing differential centrifugation and discontinuous density gradient centrifugation in Ficoll. […] Omeprazole was used as a control. A solution containing 2 mM of magnesium chloride, 40 mM of imidazole buffer (pH 7.4), 10 mM of potassium chloride and […] of ATP was added to the mixture. The resulting mixture was incubated at 37° C. for 15 minutes and the reaction was terminated by adding 1 ml of ice-cold 22% solution of trichloroacetic acid. Enzyme activity was calculated by measuring the separated inorganic phosphate by following the method of Fiske and Subbarow [J. Biol. Chem., 66, 375-440 (1925)].

stress-induced ulcer = experiment: Inhibition of stress-induced ulcer; type: in vivo, male Sprague-Dawley rats; settings: Rattus norvegicus; oral, water immersion stress; read-out: Anti-ulcer activity (ED50), Stress
Procedure: 4) Inhibition of stress-induced ulcer Inhibitory activity of the inventive compound on the stress-induced ulcer was evaluated by using male Spraque-Dawley rats. Thus, rats were starved for 24 hours prior to carrying out the experiment. Stress is an important factor for causing gastric ulcer, and was applied to rats by immersing them in water. Then, the inventive compounds shown in Table 3 or omeprazole as a control was orally administered, and the inhibitions of ulcer by the action of the test compounds were observed.

[1] = tested on: indomethacin-induced lesions; experiment: Inhibition of indomethacin-induced lesions; type: in vivo, male Sprague-Dawley rats; settings: Rattus norvegicus; oral, before indomethacin 35 mg/kg s.c.; read-out: Anti-ulcer activity (ED50), Indomethacin
Procedure: 3) Inhibition of indomethacin-induced lesions Inhibitory activities of the inventive compounds on the indomethacin-induced lesions were measured by using male Sprague-Dawley rats. Thus, rats were starved for 48 hours and prohibited from being supplied with water for 2 hours, and 35 mg/kg of indomethacin (Sigma Co.) as a causative of gastric lesions was subcutaneously administered. Before indomethacin treatment, the inventive compounds shown in Table 3 or omeprazole as a positive control was orally administered, and the inhibitions of lesions by the action of the test compounds were observed.

ethanol-induced lesions = experiment: Inhibition of ethanol-induced lesions; type: in vivo, male Sprague-Dawley rats; settings: Rattus norvegicus; oral, 30 min before absolute ethanol (5 ml/kg); read-out: Anti-ulcer activity (ED50), Ethanol
Procedure: 1) Inhibition of ethanol-induced lesions Inhibitory activity of the inventive compound on the ethanol-induced lesions was measured by using male Sprague-Dawley rats weighing 180-200 g. Thus, rats were starved for 24 hours, and the inventive compounds shown in Table 3 or omeprazole as a positive control was orally administered. Thirty minutes later, absolute ethanol (5 ml/kg) was orally administered. 1.5 hours later, the stomach was removed, and the degree of the wound of the stomach was measured.

mepirizole-induced ulcer = experiment: Inhibition of mepirizole-induced ulcer; type: in vivo, male Sprague-Dawley rats; settings: Rattus norvegicus; oral, 30 min before mepirizole (250 mg/kg); duodenum; read-out: Anti-ulcer activity (ED50), Mepirizole
Procedure: 2) Inhibition of mepirizole-induced ulcer Inhibitory activity of the inventive compound on the mepirizole-induced ulcer was measured by using male Spraque-Dawley rats weighing 200-230 g. Thus, rats were not starved, and the inventive compounds shown in Table 3 or omeprazole as a positive control was orally administered. Thirty minutes later, mepirizole suspended in 1% CMC (250 mg/kg) was orally administered. […], the duodena were removed. The degree of the ulcer thereof was measured.

[2] = tested on: acetic acid-induced ulcer; experiment: Inhibition of acetic acid-induced ulcer; type: in vivo, male Sprague-Dawley rats; settings: oral, 10 days
Procedure: 5) Inhibition of acetic acid-induced ulcer Inhibitory activity of the inventive compound on the acetic acid-induced ulcer was evaluated by using male Sprague-Dawley rats. Thus, rats were starved for 5 hours prior to carrying out the experiment. 20 Microliter of 30% acetic acid was injected into the submucosal layer of the stomach using a microsyringe to induce a circular ulcer on the stomach. […] The percentages of the healing of the ulcer were calculated by comparing them with that of reference group.

gastric secretion = experiment: Inhibition of gastric secretion (Shay ligation); type: in vivo, male Sprague-Dawley rats; settings: 4 hours, pylorus-ligated rats; for Gastric juice Secretion Inhibition (% at 12.5 mg/kg): 12.5 mg/kg into duodenum; for ED50: Rattus norvegicus, into duodenum, read-out: Gastric juice Secretion Inhibition (ED50)
Procedure: 2. Inhibition of Gastric Secretion
Inhibition of gastric secretion was measured by following the procedure of Shay ligation (Gastroenterology, 1954, 26, 903). Thus, male Sprague-Dawleyrats weighing 180-200 g were starved for 24 hours and their pylorus were ligated. Then, the inventive compounds shown in Table 2 or omeprazole as a positive control was administered into duodenum. Four hours later, the stomach was removed, and the acidity and amount of gastric juice were measured. By comparing the measured values with the acidity and amount of the gastric juice of the stomach of the reference group to which no test compound was administered, the inhibition of gastric secretion was calculated.

ICR mice = experiment: Acute toxicity (oral, 14 days); type: in vivo; settings: 6 animals
Procedure: (§1) A median lethal dose (LD50) an index of acute toxicity was measured and is Table 4

[3] = Acute toxicity (oral, 14 days); type: in vivo; settings: mouse, in vivo, po; for mortality at 336 h: read-out: Lethality (%); for LD50 at 336 h: 14 days
Procedure: as §1

[4] = preincubation 30 min, 37° C., pH 7.4

IC50 (H^+ /K^+ ATPase; [4]): 26.9 µM
SMILES: CCCC(=O)c1cnc2c(OC)nccc2c1NCCCCc1ccccc1 [Example 29]

IC50 (H^+ /K^+ ATPase; control): 57.5 µM
SMILES: COc1ccc2[nH]c([S+]([O-])Cc3ncc(C)c(OC)c3C)nc2c1 (stereo not drawn) [Omeprazole, reference compound]
ED50 (stress-induced ulcer): 4.4 mg/kg
ED50 [1]: 1.2 mg/kg
ED50 (ethanol-induced lesions): 17.5 mg/kg
ED50 (mepirizole-induced ulcer): 2.8 mg/kg
Acetic acid: Percentage of healing in 30 mg/kg [2]: 27.1%

SMILES: CCOC(=O)c1cnc2c(N3CCOCC3)nccc2c1Nc1ccccc1OC [Example 49]
Gastric juice Secretion Inhibition (% at 12.5 mg/kg) (gastric secretion): 35.8%

IC50 (H^+ /K^+ ATPase; [4]): 31.6 µM
SMILES: CCOC(=O)c1cnc2c(OC)nccc2c1Nc1ccc(F)cc1 [Example 11]

IC50 (H^+ /K^+ ATPase; [4]): 14.7 µM
SMILES: CCCC(=O)c1cnc2c(OCC)nccc2c1NC1CCCc2ccccc21 (stereo not drawn) [Example 42]

IC50 (H^+ /K^+ ATPase; [4]): 28 µM
SMILES: CCCC(=O)c1cnc2c(OCC)nccc2c1N[C@H](C)c1ccccc1 [Example 37]
ED50 (gastric secretion): 13.3 mg/kg

IC50 (H^+ /K^+ ATPase; [4]): 23.4 µM
SMILES: CCCC(=O)c1cnc2c(OCC)nccc2c1Nc1ccccc1SC [Example 34]
ED50 [1]: 4.9 mg/kg
ED50 (ethanol-induced lesions): 30.6 mg/kg
ED50 (gastric secretion): 30 mg/kg

IC50 (H^+ /K^+ ATPase; [4]): 25.1 µM
SMILES: CCCCc1ccc(Nc2c(C(=O)OCC)cnc3c(OC)nccc23)cc1 [Example 13]
Gastric juice Secretion Inhibition (% at 12.5 mg/kg) (gastric secretion): 42.1%

IC50 (H^+ /K^+ ATPase; [4]): 16.8 µM
SMILES: CCOC(=O)c1cnc2c(N3CCOCC3)nccc2c1Nc1cccc(C(F)(F)F)c1 [Example 55]

IC50 (H^+ /K^+ ATPase; [4]): 11.4 µM
SMILES: CCCC(=O)c1cnc2c(OC(C)C)nccc2c1Nc1ccccc1SC [Example 44]

IC50 (H^+ /K^+ ATPase; [4]): 20.5 µM
SMILES: CCCCc1ccc(Nc2c(C(=O)CCC)cnc3c(OCC)nccc23)cc1 [Example 35]

IC50 (H^+ /K^+ ATPase; [4]): 18.2 µM
SMILES: CCCC(=O)c1cnc2c(OC(C)C)nccc2c1Nc1ccccc1C [Example 43, 3-Butyryl-8-isopropoxy-4-(2-methylphenylamino)-1,7-naphthyridine]

IC50 (H^+ /K^+ ATPase; [4]): 39.3 µM
SMILES: CCCC(=O)c1cnc2c(OC(C)C)nccc2c1Nc1ccccc1C(F)(F)F [Example 45]

SMILES: CCCC(=O)c1cnc2c(OC)nccc2c1N[C@H](C)c1ccccc1 [Example 21]
ED50 (stress-induced ulcer): 13 mg/kg
No. of Death (ICR mice; female, 40 mg/kg oral): 0
No. of Death (ICR mice; female, 200 mg/kg oral): 0
No. of Death (ICR mice; female, 1000 mg/kg oral): 1
No. of Death (ICR mice; female, 5000 mg/kg oral): 6
No. of Death (ICR mice; male, 40 mg/kg oral): 0
No. of Death (ICR mice; male, 200 mg/kg oral): 0
No. of Death (ICR mice; male, 1000 mg/kg oral): 0
No. of Death (ICR mice; male, 5000 mg/kg oral): 6
mortality at 336 h ([3]; 40 mg/kg, female, 40 mg/kg oral): 0%
mortality at 336 h ([3]; 40 mg/kg, male, 40 mg/kg oral): 0%
mortality at 336 h ([3]; 200 mg/kg, female, 200 mg/kg oral): 0%
mortality at 336 h ([3]; 200 mg/kg, male, 200 mg/kg oral): 0%
mortality at 336 h ([3]; 1000 mg/kg, female, 1000 mg/kg oral): 17%
mortality at 336 h ([3]; 1000 mg/kg, male, 1000 mg/kg oral): 0%
mortality at 336 h ([3]; 5000 mg/kg, female, 5000 mg/kg oral): 100%
mortality at 336 h ([3]; 5000 mg/kg, male, 5000 mg/kg oral): 100%
LD50 at 336 h ([3]; female): 1130 mg/kg
LD50 at 336 h ([3]; male): 2340 mg/kg
ED50 [1]: 2.1 mg/kg
ED50 (ethanol-induced lesions): 11.2 mg/kg
IC50 (H^+ /K^+ ATPase; [4]): 45.7 µM
ED50 (mepirizole-induced ulcer): 64.1 mg/kg
Acetic acid: Percentage of healing in 30 mg/kg [2]: 22.0%
ED50 (gastric secretion): 11.7 mg/kg

IC50 (H^+ /K^+ ATPase; [4]): 14.9 µM
SMILES: CCCC(=O)c1cnc2c(OC)nccc2c1Nc1ccc2c(c1)CCC2 [Example 31]

SMILES: CCOC(=O)c1cnc2c(OC)nccc2c1N[C@@H](C)c1ccccc1 [Example 15]
ED50 [1]: 2.1 mg/kg
ED50 (ethanol-induced lesions): 12.8 mg/kg
ED50 (gastric secretion): 30 mg/kg

IC50 (H^+ /K^+ ATPase; [4]): 12.6 µM
SMILES: CCCC(=O)c1cnc2c(OCC)nccc2c1NCCCCc1ccccc1 [Example 41]

IC50 (H^+ /K^+ ATPase; [4]): 75 µM
SMILES: CCCC(=O)c1cnc2c(OC)nccc2c1NC1CCCc2ccccc21 (stereo not drawn) [Example 32]
